Numbered stars: 1 amine (or outer) side, 2 acyl side, 3 side chain; on linkers, the order of the positions; unused ones are H or OH. Bridge positions count the residues as written; N and C are the ends. Square brackets hold non-standard residues; d marks the D form. Peptide text beside a SMILES is read from it. * marks the point of attachment. hPhe(3,5-F2-4-CF3) = N[C@@H](CCc1cc(F)c(C(F)(F)F)c(F)c1)C(=O)O; hPhe(3-Cl-4-CF3) = N[C@@H](CCc1ccc(C(F)(F)F)c(Cl)c1)C(=O)O; hPhe(3-F,4-CF3) = N[C@@H](CCc1ccc(C(F)(F)F)c(F)c1)C(=O)O; NMePhe(4-CF3) = CN[C@@H](Cc1ccc(C(F)(F)F)cc1)C(=O)O; NEtPhe(4-Cl) = CCN[C@@H](Cc1ccc(Cl)cc1)C(=O)O; NEtPhe(4-Me) = CCN[C@@H](Cc1ccc(C)cc1)C(=O)O; NMePhe(4-Me) = CN[C@@H](Cc1ccc(C)cc1)C(=O)O; NMedβ3hAla = C[C@H](CC(=O)[*:2])N(C)[*:1]; NMeGly(cPent) = CN[C@H](C(=O)O)C1CCCC1; NMeCha = CN[C@@H](CC1CCCCC1)C(=O)O; NMeGly(cPr) = CN[C@H](C(=O)O)C1CC1; Hyp = O=C(O)[C@@H]1C[C@@H](O)CN1; NMeChg = CN[C@H](C(=O)O)C1CCCCC1; NMeI = CC[C@H](C)[C@H](NC)C(=O)O; NMeD = CN[C@@H](CC(=O)O)C(=O)O; NMeL = CN[C@@H](CC(C)C)C(=O)O; NMeV = CN[C@H](C(=O)O)C(C)C; Azetidin(1-yl) = C1CN(*)C1; Morpholide = C1CN(*)CCO1; NMeA = CN[C@@H](C)C(=O)O; NMeAib = CNC(C)(C)C(=O)O; Nle = CCCC[C@H](N)C(=O)O; Piperidide = C1CCN(*)CC1; Ac5c = NC1(C(=O)O)CCCC1; Aze = O=C(O)[C@@H]1CCN1; Sar = CNCC(=O)O
Tests used:
[1] = system: Human pancreatic cancer cell line AsPC-1 (G12D mutation Kras); test: AsPC-1 cell growth inhibition (AsPC-1 CGI); assay type: cell-based; conditions: read-out: AsPC-1 cell growth inhibition, 50% growth inhibitory concentration (IC50 value); 96 hours, CellTiter-Glo, values classified in ranges
[2] = biological target: protein-protein interaction between Kras and SOS1 (biotin-tagged human Kras loaded with GDP, His-tagged human SOS1) (Homo sapiens (Human), UniProt P01116, G12D); test: Protein-protein interaction inhibition between Kras and SOS1 (KrasG12D-SOS PPI) using AlphaScreen; assay type: biochemical; conditions: AlphaScreen; biotin-tagged human Kras loaded with GDP, His-tagged human SOS1; read-out: KRAS G12D-SOS PPI IC50;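 also: kras produced in E. coli, Ni-coupled donor beads and streptavidin acceptor beads, excitation 680 nm with emission detected at 520–620 nm via singlet oxygen transfer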

Row | Structure (SMILES) | IC50 [1] | IC50 [2]
1 | CC[C@H](C)[C@@H]1NC(=O)[C@H](CC(C)C)N(C)C(=O)C[C@@H](C(=O)N2CCCCC2)N(C)C(=O)[C@H](C2CCCC2)N(C)C(=O)C2(CCCC2)NC(=O)[C@@H]2CCCN2C(=O)[C@H](CCc2ccc(C(F)(F)F)c(Cl)c2)NC(=O)CN(C)C(=O)[C@H](Cc2ccc(C(F)(F)F)cc2)N(C)C(=O)[C@@H]2CCN2C(=O)[C@H](C)N(C)C1=O [Compound 370] ([NMeL]I[NMeA][Aze][NMePhe(4-CF3)][Sar][hPhe(3-Cl-4-CF3)]P[Ac5c][NMeGly(cPent)][NMeD]-Piperidide; lactam N-11) | ≤ 20 nM | 0.35 nM
2 | CCO[C@@H]1C[C@H]2C(=O)NC3(CCCC3)C(=O)N(C)[C@@H]([C@@H](C)CC)C(=O)N(C)[C@H](C)CC(=O)N(C)[C@@H](CC(C)C)C(=O)N[C@@H]([C@@H](C)CC)C(=O)N(C)[C@@H](C)C(=O)N3CC[C@H]3C(=O)N(CC)[C@@H](Cc3ccc(C)cc3)C(=O)N(C)CC(=O)N[C@@H](CCc3cc(F)c(C(F)(F)F)c(F)c3)C(=O)N2C1 [Compound 33] (cyclo([Ac5c][NMeI][NMedβ3hAla][NMeL]I[NMeA][Aze][NEtPhe(4-Me)][Sar][hPhe(3,5-F2-4-CF3)][Hyp](Et))) | ≤ 20 nM | 6.9 nM
3 | CC[C@H](C)[C@@H]1NC(=O)[C@H](CC(C)C)N(C)C(=O)C[C@@H](C(=O)N2CCOCC2)N(C)C(=O)[C@H]([C@@H](C)CC)N(C)C(=O)C2(CCCC2)NC(=O)[C@@H]2CCCN2C(=O)[C@H](CCc2ccc(C(F)(F)F)c(F)c2)NC(=O)CN(C)C(=O)[C@H](Cc2ccc(C)cc2)N(C)C(=O)[C@@H]2CCN2C(=O)[C@H](C)N(C)C1=O [Compound 47] ([NMeL]I[NMeA][Aze][NMePhe(4-Me)][Sar][hPhe(3-F,4-CF3)]P[Ac5c][NMeI][NMeD]-Morpholide; lactam N-11) | ≤ 20 nM | 1.5 nM
4 | CC[C@H](C)[C@@H]1NC(=O)[C@H](CC(C)C)N(C)C(=O)C[C@@H](C(=O)N(C)C)N(C)C(=O)[C@H](C2CCCC2)N(C)C(=O)C2(CCCC2)NC(=O)[C@@H]2CCCN2C(=O)[C@H](CCc2ccc(C(F)(F)F)c(F)c2)NC(=O)CN(C)C(=O)[C@H](Cc2ccc(C)cc2)N(CC)C(=O)[C@@H]2CCN2C(=O)[C@H](C)N(C)C1=O [Compound 1152] ([NMeL]I[NMeA][Aze][NEtPhe(4-Me)][Sar][hPhe(3-F,4-CF3)]P[Ac5c][NMeGly(cPent)][NMeD]-NMe2; lactam N-11) | ≤ 20 nM | 1.2 nM
5 | CC[C@H](C)[C@@H]1NC(=O)[C@H](CC(C)C)N(C)C(=O)C[C@@H](C(=O)N2CCC2)N(C)C(=O)[C@H](C2CCCC2)N(C)C(=O)C2(CCCC2)NC(=O)[C@@H]2CCCN2C(=O)[C@H](CCc2cc(F)c(C(F)(F)F)c(F)c2)NC(=O)CN(C)C(=O)[C@H](CC2CCCCC2)N(C)C(=O)[C@@H]2CCN2C(=O)[C@H](C)N(C)C1=O [Compound 1070] ([NMeL]I[NMeA][Aze][NMeCha][Sar][hPhe(3,5-F2-4-CF3)]P[Ac5c][NMeGly(cPent)][NMeD]-{Azetidin(1-yl)}; lactam N-11) | ≤ 20 nM | 0.91 nM
6 | CCO[C@@H]1C[C@H]2C(=O)NC3(CCCC3)C(=O)N(C)[C@@H](C3CCCCC3)C(=O)N(C)[C@H](C(=O)N3CCOCC3)CC(=O)N(C)[C@@H](CC(C)C)C(=O)N[C@@H]([C@@H](C)CC)C(=O)N(C)CC(=O)N(C)CC(=O)N(C)[C@@H](CC3CCCCC3)C(=O)N(C)CC(=O)N[C@@H](CCc3cc(F)c(C(F)(F)F)c(F)c3)C(=O)N2C1 [Compound 1290] ([NMeL]I[Sar][Sar][NMeCha][Sar][hPhe(3,5-F2-4-CF3)][Hyp](Et)[Ac5c][NMeChg][NMeD]-Morpholide; lactam N-11) | ≤ 20 nM | 0.63 nM
7 | CCCC[C@@H]1NC(=O)[C@H](CCc2ccc(C(F)(F)F)c(F)c2)NC(=O)CN(C)C(=O)[C@H](Cc2ccc(Cl)cc2)N(CC)C(=O)CN(C)C(=O)CN(C)C(=O)[C@H]([C@@H](C)CC)NC(=O)[C@H](CC(C)C)N(C)C(=O)C[C@@H](C)N(C)C(=O)[C@H](CC(C)C)NC(=O)C(C)(C)N(C)C1=O [Compound 257] (cyclo(I[Sar][Sar][NEtPhe(4-Cl)][Sar][hPhe(3-F,4-CF3)][Nle][NMeAib]L[NMedβ3hAla][NMeL])) | > 500 nM | 97 nM
8 | CC[C@H](C)[C@@H]1NC(=O)[C@H](CC(C)C)N(C)C(=O)C[C@@H](C(=O)N2CCCCC2)N(C)C(=O)[C@H](C(C)C)N(C)C(=O)C2(CCCC2)NC(=O)[C@@H]2CCCN2C(=O)[C@H](CCc2ccc(C(F)(F)F)c(Cl)c2)NC(=O)CN(C)C(=O)[C@H](C2CC2)N(C)C(=O)[C@@H]2CCN2C(=O)[C@H](C)N(C)C1=O [Compound 1677] ([NMeL]I[NMeA][Aze][NMeGly(cPr)][Sar][hPhe(3-Cl-4-CF3)]P[Ac5c][NMeV][NMeD]-Piperidide; lactam N-11) | > 500 nM | 8.6 nM

— patent publication US20240148821A1, “PHARMACEUTICAL USE OF CYCLIC PEPTIDE COMPOUND” (CHUGAI SEIYAKU KABUSHIKI KAISHA, priority 2021, published 2024)
